Like-named read-outs stand apart in the source and are kept apart here.
How the values were obtained:
[1] = tested on: WNV; test: Virucidal assay, WNV preincubated with compound then titrated by plaque assay; settings: 5 µg/mL, 1 h at 37°C
[2] = tested on: WNV; test: Antiviral activity against WNV in mice, viral burden by quantitative RT-PCR; format: in vivo; settings: CD-1 female mice, 20 mg/kg p.o. twice a day
Method: (§1) Pharmacokinetics was analyzed after a single oral (p.o.) dose of the compounds (in a 0.5% methyl cellulose suspension) administered to fasted male mice. […] Antiviral activity in vivo was determined using eight-week-old Swiss albino CD-1 female mice (Envigo, Huntingdon, UK). […] Control mice were treated in parallel with drug vehicle (carboxymethylcellulose). For experiments evaluating the effect of genetic deletion of ACC2 gene on WNV infection, a breeding colony of C57BL/6 ACC2^-/- mice was established from two heterozygous Acab^tm1Dejs females. Age- and sex-matched eight-week-old ACC2^-/- and control wild type (WT) mice were challenged with WNV (1 × 10^4 PFU/animal, i.p.). Animals were monitored daily and received water and food ad libitum.
RNA was automatically extracted using a QIAcube equipment (QIAGEN GmbH, Hilden, Germany) and QIAamp viral RNA Mini Kit (QIAGEN, catalog no. 52906) for sera or RNeasy Mini Kit (QIAGEN, catalog no. 74106) for tissue homogenates. The content of viral RNA in each sample was analyzed by real-time fluorogenic reverse transcriptase PCR by comparison with previously titrated samples and determined as PFU equivalents/mL [22].

[3] = molecular target: rat ACC1 (Rattus norvegicus, UniProt P11497); test: Radiometric ACC inhibition assay, rat ACC1; format: biochemical
Method: (§2) (-)-Epicgallocathechin gallate, EGCG (catalog no. 0981 S) was from Extrasynthese (Genay, France). […] Apparent permeability was assessed in low-efflux MDCKII cells. In vitro potencies of the inhibitors were determined using a radiometric assay. For tissue culture experiments, drugs were suspended in DMSO. Control cells were treated in parallel with the same amount of DMSO (vehicle). Cell viability was estimated in uninfected cells by ATP measurement using Cell Titer Glo luminescent cell viability assay (catalog no. G7579; Promega, Madison, WI). […] Cells were lysed by adding equal amounts of Cell Titer Glo reagent (100 µL/well) and gentle rocking (2 min) in an orbital shaker. The amount of ATP in each sample was determined by luminescence measurement using white microplates and a TECAN Genius (Zurich, Switzerland) microplate reader.

[4] = Apparent permeability in low-efflux MDCKII cells; settings: dog, MDCK
Method: as §2

[5] = Cell viability by ATP measurement (Cell Titer Glo) in uninfected Vero cells; settings: African green monkey
Method: as §2

[6] = tested on: ZIKV; test: ZIKV multiplication in Vero cells, virus yield by plaque assay; settings: for EC50: Zika virus, Vero, 24 h, read-out: EC50 ZIKV; for SI (CC50/EC50) ZIKV: calculated at 24 h
[7] = molecular target: human ACC2 (Homo sapiens, UniProt O00763); test: Radiometric ACC inhibition assay, human ACC2; format: biochemical
Chain of human ACC2 (O00763 whole entry): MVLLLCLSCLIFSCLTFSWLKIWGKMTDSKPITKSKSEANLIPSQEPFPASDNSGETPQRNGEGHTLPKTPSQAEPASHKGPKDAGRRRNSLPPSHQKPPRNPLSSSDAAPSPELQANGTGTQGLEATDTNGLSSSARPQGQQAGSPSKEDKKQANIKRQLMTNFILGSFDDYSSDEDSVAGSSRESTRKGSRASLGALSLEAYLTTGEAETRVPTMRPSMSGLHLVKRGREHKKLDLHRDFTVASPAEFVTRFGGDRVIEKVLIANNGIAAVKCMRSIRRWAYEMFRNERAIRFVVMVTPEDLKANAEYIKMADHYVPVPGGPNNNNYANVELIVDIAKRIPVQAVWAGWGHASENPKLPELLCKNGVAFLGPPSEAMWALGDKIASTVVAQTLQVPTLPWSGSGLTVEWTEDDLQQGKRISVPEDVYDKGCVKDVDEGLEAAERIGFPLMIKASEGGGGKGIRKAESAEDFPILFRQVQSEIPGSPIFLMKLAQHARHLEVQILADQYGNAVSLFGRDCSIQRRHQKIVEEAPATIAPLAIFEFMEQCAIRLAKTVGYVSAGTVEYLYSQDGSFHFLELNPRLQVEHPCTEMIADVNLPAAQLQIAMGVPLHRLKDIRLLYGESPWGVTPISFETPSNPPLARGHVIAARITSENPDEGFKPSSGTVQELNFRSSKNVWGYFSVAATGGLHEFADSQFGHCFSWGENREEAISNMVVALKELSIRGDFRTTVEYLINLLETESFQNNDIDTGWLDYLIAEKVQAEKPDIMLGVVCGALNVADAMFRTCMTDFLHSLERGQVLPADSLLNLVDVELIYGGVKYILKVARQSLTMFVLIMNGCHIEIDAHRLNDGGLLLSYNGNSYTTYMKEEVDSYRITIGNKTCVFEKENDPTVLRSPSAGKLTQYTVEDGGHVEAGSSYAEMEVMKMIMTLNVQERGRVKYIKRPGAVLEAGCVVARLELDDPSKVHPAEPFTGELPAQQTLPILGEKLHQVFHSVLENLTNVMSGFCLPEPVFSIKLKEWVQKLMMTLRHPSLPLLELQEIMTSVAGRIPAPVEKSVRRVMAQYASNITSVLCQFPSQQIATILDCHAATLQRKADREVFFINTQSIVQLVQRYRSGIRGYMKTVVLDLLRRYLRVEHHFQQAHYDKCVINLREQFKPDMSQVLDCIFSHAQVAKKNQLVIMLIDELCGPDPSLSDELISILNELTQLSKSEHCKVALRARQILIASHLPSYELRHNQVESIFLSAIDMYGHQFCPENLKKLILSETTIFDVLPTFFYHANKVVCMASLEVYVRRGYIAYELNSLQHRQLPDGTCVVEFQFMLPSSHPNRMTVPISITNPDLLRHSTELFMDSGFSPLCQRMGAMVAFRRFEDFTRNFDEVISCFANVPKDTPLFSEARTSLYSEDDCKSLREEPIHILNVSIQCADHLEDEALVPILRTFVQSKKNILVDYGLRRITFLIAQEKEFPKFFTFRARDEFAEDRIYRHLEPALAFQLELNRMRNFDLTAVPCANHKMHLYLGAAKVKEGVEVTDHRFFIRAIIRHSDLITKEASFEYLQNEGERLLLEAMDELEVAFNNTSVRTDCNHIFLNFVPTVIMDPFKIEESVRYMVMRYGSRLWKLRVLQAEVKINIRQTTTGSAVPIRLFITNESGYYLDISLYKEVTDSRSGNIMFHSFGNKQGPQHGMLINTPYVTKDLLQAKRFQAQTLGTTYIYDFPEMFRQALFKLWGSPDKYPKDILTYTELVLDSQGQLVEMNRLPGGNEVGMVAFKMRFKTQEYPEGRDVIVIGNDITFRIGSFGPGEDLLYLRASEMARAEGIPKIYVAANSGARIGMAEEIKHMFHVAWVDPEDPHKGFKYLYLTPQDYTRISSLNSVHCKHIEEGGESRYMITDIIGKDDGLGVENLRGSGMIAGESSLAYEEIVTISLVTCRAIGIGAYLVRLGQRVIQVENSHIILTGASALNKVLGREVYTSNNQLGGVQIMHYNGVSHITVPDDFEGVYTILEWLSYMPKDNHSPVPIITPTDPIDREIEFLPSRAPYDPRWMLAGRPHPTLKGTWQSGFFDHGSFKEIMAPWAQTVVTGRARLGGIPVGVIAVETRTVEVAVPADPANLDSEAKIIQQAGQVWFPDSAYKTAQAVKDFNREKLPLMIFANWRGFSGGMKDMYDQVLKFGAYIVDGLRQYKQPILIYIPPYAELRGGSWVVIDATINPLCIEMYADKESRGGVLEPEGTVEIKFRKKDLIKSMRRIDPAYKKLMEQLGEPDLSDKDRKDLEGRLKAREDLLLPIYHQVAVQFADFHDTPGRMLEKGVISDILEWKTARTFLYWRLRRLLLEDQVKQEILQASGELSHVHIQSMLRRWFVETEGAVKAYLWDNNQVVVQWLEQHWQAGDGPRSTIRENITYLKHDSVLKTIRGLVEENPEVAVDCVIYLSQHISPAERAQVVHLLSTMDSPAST
Method: as §2

[8] = molecular target: rat ACC2 (Rattus norvegicus, UniProt Q1HEC0); test: Radiometric ACC inhibition assay, rat ACC2; format: biochemical
Chain of rat ACC2 (Q1HEC0 17-2455): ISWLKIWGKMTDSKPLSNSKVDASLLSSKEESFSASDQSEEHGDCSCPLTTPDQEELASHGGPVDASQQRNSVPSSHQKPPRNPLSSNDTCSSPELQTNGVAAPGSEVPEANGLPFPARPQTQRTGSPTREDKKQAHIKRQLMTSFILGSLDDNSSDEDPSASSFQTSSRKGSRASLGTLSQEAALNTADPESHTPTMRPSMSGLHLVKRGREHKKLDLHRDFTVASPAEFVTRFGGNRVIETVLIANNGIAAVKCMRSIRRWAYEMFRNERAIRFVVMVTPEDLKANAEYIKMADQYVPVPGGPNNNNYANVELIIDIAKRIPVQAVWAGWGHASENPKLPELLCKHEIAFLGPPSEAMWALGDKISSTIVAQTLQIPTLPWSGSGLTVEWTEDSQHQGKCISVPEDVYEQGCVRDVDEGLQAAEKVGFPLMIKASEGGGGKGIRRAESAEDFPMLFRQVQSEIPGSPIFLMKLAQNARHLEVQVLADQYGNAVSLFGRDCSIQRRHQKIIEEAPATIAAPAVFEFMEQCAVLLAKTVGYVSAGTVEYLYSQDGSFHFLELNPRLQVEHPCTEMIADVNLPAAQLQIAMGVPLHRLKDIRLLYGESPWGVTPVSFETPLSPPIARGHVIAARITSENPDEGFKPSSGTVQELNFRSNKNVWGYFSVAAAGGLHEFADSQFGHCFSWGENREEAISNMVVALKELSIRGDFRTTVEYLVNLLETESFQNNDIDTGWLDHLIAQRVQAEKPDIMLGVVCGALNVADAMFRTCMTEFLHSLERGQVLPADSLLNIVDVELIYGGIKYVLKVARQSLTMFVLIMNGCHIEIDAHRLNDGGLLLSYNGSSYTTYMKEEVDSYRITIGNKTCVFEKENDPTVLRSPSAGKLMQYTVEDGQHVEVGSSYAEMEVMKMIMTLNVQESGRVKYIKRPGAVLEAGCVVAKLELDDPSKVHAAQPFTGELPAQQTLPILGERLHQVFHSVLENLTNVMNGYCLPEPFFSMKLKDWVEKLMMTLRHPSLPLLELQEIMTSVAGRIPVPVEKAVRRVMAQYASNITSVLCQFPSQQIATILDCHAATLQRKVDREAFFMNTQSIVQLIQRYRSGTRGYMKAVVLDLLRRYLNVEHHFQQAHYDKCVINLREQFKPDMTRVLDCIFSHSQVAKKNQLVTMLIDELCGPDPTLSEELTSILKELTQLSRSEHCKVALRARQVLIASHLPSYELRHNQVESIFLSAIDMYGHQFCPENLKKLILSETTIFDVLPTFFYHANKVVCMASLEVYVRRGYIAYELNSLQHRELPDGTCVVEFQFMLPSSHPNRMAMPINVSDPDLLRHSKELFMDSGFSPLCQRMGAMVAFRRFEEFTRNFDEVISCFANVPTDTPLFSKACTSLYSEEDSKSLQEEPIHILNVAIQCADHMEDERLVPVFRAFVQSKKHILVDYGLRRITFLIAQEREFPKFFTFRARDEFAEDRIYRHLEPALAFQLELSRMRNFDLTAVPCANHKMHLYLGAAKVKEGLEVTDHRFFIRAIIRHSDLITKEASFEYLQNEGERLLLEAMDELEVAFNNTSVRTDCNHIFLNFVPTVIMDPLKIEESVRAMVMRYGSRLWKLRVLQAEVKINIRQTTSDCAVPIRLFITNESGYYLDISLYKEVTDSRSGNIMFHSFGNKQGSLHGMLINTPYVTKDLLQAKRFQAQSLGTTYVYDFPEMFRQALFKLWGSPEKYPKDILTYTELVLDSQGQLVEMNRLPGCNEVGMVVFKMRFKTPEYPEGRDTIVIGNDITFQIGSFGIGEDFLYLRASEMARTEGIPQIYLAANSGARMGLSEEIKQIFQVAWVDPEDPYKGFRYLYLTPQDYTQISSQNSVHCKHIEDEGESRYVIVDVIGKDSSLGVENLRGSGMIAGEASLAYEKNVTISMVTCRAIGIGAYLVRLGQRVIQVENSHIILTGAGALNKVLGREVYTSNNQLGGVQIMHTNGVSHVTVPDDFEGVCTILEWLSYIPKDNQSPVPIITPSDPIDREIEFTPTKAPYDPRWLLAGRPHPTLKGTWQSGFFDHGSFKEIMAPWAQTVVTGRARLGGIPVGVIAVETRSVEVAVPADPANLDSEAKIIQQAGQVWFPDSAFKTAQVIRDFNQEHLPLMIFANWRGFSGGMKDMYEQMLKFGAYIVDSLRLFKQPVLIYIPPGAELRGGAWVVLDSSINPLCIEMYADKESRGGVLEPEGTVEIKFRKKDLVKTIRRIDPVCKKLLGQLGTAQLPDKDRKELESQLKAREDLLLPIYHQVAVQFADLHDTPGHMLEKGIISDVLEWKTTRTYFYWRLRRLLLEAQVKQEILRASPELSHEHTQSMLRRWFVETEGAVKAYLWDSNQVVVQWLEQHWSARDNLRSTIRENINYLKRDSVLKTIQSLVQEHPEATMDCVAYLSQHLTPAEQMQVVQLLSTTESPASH
Method: as §2

[9] = molecular target: human ACC1 (Homo sapiens, UniProt Q13085); test: Radiometric ACC inhibition assay, human ACC1; format: biochemical
Method: as §2

[10] = tested on: WNV; test: WNV multiplication in Vero cells, virus yield by plaque assay; settings: for EC50: West Nile virus, Vero, 24 h, read-out: EC50 WNV; for SI (CC50/EC50) WNV: calculated at 24 h
[11] = tested on: DENV; test: DENV multiplication in Vero cells, virus yield by plaque assay; settings: for EC50: Dengue virus, Vero, 48 h, read-out: EC50 DENV; for SI (CC50/EC50) DENV: calculated at 48 h
[12] = tested on: WNV; test: Time of addition assay, WNV-infected Vero cells; format: cell-based, West Nile virus; settings: 5 µg/mL, MOI 1 PFU/cell, 24 h
[13] = Mouse pharmacokinetics after a single oral dose; format: in vivo; settings: fasted male mice, mean ± SD, n = 3; for Cmax: male, read-out: Cmax, maximum plasma-concentration; for Cmax / AUC / Tmax: mouse, in vivo, po; for AUC: 0.5% methyl cellulose suspension, read-out: AUC(Exp), area under the plasma-concentration-time curve; for Tmax: read-out: Tmax, time to reach the maximum plasma-concentration
Method: as §1

[14] = WNV i.p., 7 days post-infection
[15] = single p.o. dose 100 mg/kg, 100 mg/kg
[16] = 100 mg/kg, single p.o. dose 100 mg/kg

| SMILES | Virucidal effect, remaining WNV infectivity [1] | IC50 [3] [µM] | Papp [4] [×10⁻⁶ cm/s] | CC50 at 24 h [5] [µM] | CC50 at 48 h [5] [µM] | EC50 [6] [µM] | IC50 [8] [µM] | EC50 [10] [µM] | EC50 [11] [µM] | WNV yield, drug added only 1 h before virus inoculation (pre-infection) [12] | SI (CC50/EC50) ZIKV [6] | IC50 [7] [µM] | IC50 [9] [µM] | SI (CC50/EC50) WNV [10] | SI (CC50/EC50) DENV [11] | Cmax, maximum plasma-concentration [13, 15] [ng/mL] | Cmax [13, 16] [ng/mL] | AUC ([13]; single p.o. dose 100 mg/kg) [ng·h/mL] | Tmax ([13]; single p.o. dose 100 mg/kg) [min] | other results |
| --- | --- | --- | --- | --- | --- | --- | --- | --- | --- | --- | --- | --- | --- | --- | --- | --- | --- | --- | --- | --- |
| O=C(O[C@@H]1Cc2c(O)cc(O)cc2O[C@@H]1c1cc(O)c(O)c(O)c1)c1cc(O)c(O)c(O)c1 [EGCG, (-)-Epicgallocathechin gallate, reference compound] | virucidal effect | – | – | – | – | – | – | – | – | – | – | – | – | – | – | – | – | – | – | – |
| Cc1nc2ccc(C(=O)N3CCC4(CC3)CC(=O)c3c(cnn3C(C)C)C4)cc2[nH]1 [PF-05175157] | Lack of virucidal effect | 0.024 ± 0.001 | 7 | 590 ± 37 | 236 ± 11 | < 1.2 | 0.05 ± 0.003 | 2.7 ± 1.3 | 1 ± 0.3 | did not affect WNV infection | – | – | – | – | – | – | – | – | – | Viral load in plasma (serum) vs vehicle ([2]; WNV 1 × 10^4 PFU i.p., 3 and 4 days after infection): significant reduction of viral load in plasma; Viral RNA in the kidney vs vehicle [2, 14]: significant reduction in the amount of viral RNA in the kidney; Viral RNA in the lung vs vehicle [2, 14]: tendency for a reduction in the amount of viral RNA in the lung; IC50 ([7]; radiometric assay, geometric mean ± SEM, n = 3, read-out: IC50 human ACC2): 0.033 ± 0.004 µM; IC50 ([9]; radiometric assay, geometric mean ± SEM, n = 3, read-out: IC50 human ACC1): 0.027 ± 0.003 µM; WNV yield, drug maintained after virus inoculation (post-infection) [12]: reduced viral production; Cmax ([13]; 15 mg/kg, single p.o. dose 15 mg/kg): 903 ± 495 ng/mL; AUC ([13]; single p.o. dose 15 mg/kg): 2170 ± 384 ng·h/mL; Tmax ([13]; single p.o. dose 15 mg/kg): 100 ± 121 min |
| CC(C)n1ncc2c1C(=O)CC1(CCN(C(=O)c3cc4ncccc4[nH]3)CC1)C2 [PF-05206574] | Lack of virucidal effect | 0.014 ± 0.003 | 19 | > 1280 | 415 ± 67 | < 1.3 | 0.018 ± 0.004 | 1.9 ± 0.9 | < 1.3 | reduced the infection | >982 | 0.022 ± 0.009 | 0.019 ± 0.004 | >672 | >319 | 760 ± 240 | 760 to 1070 | 3700 ± 1440 | 23 ± 12 | – |
| COc1ccc2ncc(C(=O)N3CCC4(CC3)CC(=O)c3c(cnn3C(C)C)C4)cc2c1 [PF-06256254] | Lack of virucidal effect | 0.011 | 24 | 718 ± 314 | 202 ± 22 | < 1.2 | 0.015 | < 1.2 | 1.5 ± 0.4 | reduced the infection | >598 | 0.01 ± 0.002 | 0.01 ± 0.002 | >598 | 135 | 1070 ± 452 | 760 to 1070 | 2900 ± 1070 | 33 ± 25.8 | – |
